Read-outs that look alike come from different tables or passages of the source.
Assay: Pharmacokinetics in ADHD model rats after gavage of JYPs
Format: in vivo, SHR rats (ADHD model)
Settings: for peak time: oral JYPs; for AUC(0-inf) / AUC(0-t) / Cmax / Tmax / half-life / MRT last / MRT inf: male, SHR, rat, plasma; for MRT last: read-out: MRT(0-t); for MRT inf: read-out: MRT(0-∞)
Protocol: Based on the established analytical method for plasma samples, a pharmacokinetic study was conducted on 13 constituents in the plasma of ADHD model rats after gavage of JYPs (Figure 3). The linearity of ln(AUC0-t)–ln(dose) and ln(Cmax)–ln(dose) was analyzed in the same way.
For the control experiment, healthy male Sprague Dawley (SD) rats of SPF grade ([…] ± 20 g) were purchased from Sipeifu (Beijing) Biotechnology Co., Ltd. (Beijing, China), Animal Quality Certificate No. 110324220102348616. For the ADHD model rats, healthy male SHR rats of SPF grade, weighing 220 ± 20 g, were purchased from SBF (Beijing) Biotechnology Co., Ltd. (Beijing, China), License No. SCXK (Yu) 2019-0010. The animals were accommodated in the Animal Center of Henan University of Traditional Chinese Medicine, which successfully underwent an ethical audit with ethics number DWLL202208003. The animals were bred under controlled conditions at a temperature of 24 °C and a relative humidity of 50 ± 2%. Before the experiment, the animals abstained from eating for 12 h and had unrestricted access to water. The feeding and experimental research conducted on the experimental animals adhered to the laws outlined in the Management of Experimental Animals in Henan Province.
JYPs were ground into a fine powder and sieved through 60-mesh sieves; then, 20 g of fine JYP powder was taken, having been weighed precisely. A precise volume of 50 mL of pure water was added and mixed well to prepare a 0.4 g/mL suspension solution of JYPs, which was then stored in the refrigerator at 4 °C.
This study involved 24 healthy male SD rats with a body mass of 220 ± 20 g and 24 healthy male ADHD rats with a body mass of 220 ± 20 g. Subjects abstained from food for a duration of 12 h before the experiment and consumed water without restriction. Both kinds of rats were randomly divided into four groups: a blank group, given an equal dose of water intragastrically, and 3 different administration groups: rats given the equivalent human dose of JYPs by gavage in doses of 1.080 g/kg/d, 2.160 g/kg/d, and 4.320 g/kg/d. Tail vein blood was collected at 0.083, 0.25, 0.5, 0.75, 1, 1.5, 2, 3, 4, 6, 8, 12, 18, and 24 h after dosing. About 0.5 mL of blood was collected in sodium heparin centrifugal tubes, then centrifuged at 4 °C for 10 min at a speed of 3500r/min. We took the upper layer and placed it at −80 °C for preservation.
We took 200 μL of plasma, added 600 μL of methanol solution and 50 μL of internal standard (100 ng/mL), and subjected it to shaking for 5 min, followed by centrifugation at 4 °C at 12,000 r/min for 10 min. The supernatant was collected and allowed to dry, then reconstituted with 50 μL of 50% methanol and centrifuged at 4 °C at 14,000 r/min for a further 10 min. The supernatant after this process was taken as the test solution. A volume of 5 μL was used for UPLC-MS analysis. The drug concentration in plasma was calculated with the aid of the internal standard.
Chromatographic conditions: Hypersil GOLD (100 × 2.1 mm, 1.9 μm) column; column temperature 35 °C; mobile phase acetonitrile (A)/0.1% formic acid aqueous solution (B); gradient elution; gradient elution program: 0–0.5 min (95% B–95% B), 0.5–8 min (95% B–50% B), 8–14 min (50% B–20% B), 14–20 min (20% B–5% B), 20–22 min (5% B–5% B), 22–25 min (95% B–95% B); flow rate 0.2 mL/min; injection volume 5 μL. The ion source was electrospray ionization (ESI), with positive and negative ion mode spray voltages of 3.50 and 3.0 kV, an ion transfer tube temperature of 300 °C, nitrogen as the carrier gas, a sheath gas pressure of 35 arb, an auxiliary gas pressure of 8 arb, and an auxiliary heater temperature of 275 °C.

[1] = ADHD model rats, oral JYPs high dose 4.320 g/kg/d (3rd of 3 values)
[2] = ADHD model rats, oral JYPs low dose 1.080 g/kg/d (1st of 3 values)
[3] = ADHD model rats, oral JYPs medium dose 2.160 g/kg/d (2nd of 3 values)
[4] = 1.08 g/kg/day, ADHD model rats, oral JYPs low dose 1.080 g/kg/d (1st of 3 values)
[5] = 2.16 g/kg/day, ADHD model rats, oral JYPs medium dose 2.160 g/kg/d (2nd of 3 values)
[6] = 4.32 g/kg/day, ADHD model rats, oral JYPs high dose 4.320 g/kg/d (3rd of 3 values)

SMILES	AUMC(0-t) [1]	AUMC(0-ꝏ) [1]	AUMC(0-t) [2]	AUMC(0-ꝏ) [2]	AUMC(0-t) [3]	AUMC(0-ꝏ) [3]	AUC(0-inf) [4]	AUC(0-t) [4]	Cmax [4]	Tmax [4]	half-life [4]	MRT last [4]	MRT inf [4]	AUC(0-inf) [5]	AUC(0-t) [5]	Cmax [5]	Tmax [5]	MRT last [5]	MRT inf [5]	AUC(0-inf) [6]	other results
C[C@H]1O[C@@H](O[C@H]2CC[C@@]3(C)[C@@H](CC[C@]4(C)[C@@H]3C=C[C@]35OC[C@@]6(CCC(C)(C)C[C@H]63)[C@@H](O)C[C@]54C)[C@]2(C)CO)[C@H](O)[C@@H](O[C@@H]2O[C@H](CO)[C@@H](O)[C@H](O)[C@H]2O)[C@H]1O [Saikosaponin A]	2395.92± 288.80 ng/mL*(h)²	5783.46± 3073.92 ng/mL*(h)²	1392.40± 460.59 ng/mL*(h)²	4853.64± 3957.39 ng/mL*(h)²	1937.54± 771.89 ng/mL*(h)²	5558.75± 2961.42 ng/mL*(h)²	233 ± 91.2 ng·h/mL	164 ± 57.5 ng·h/mL	40.9 ± 22.9 ng/mL	0.5 ± 0.16 h	13.3 ± 7.06 h	8.75 ± 1.6 h	19.4 ± 9.93 h	324 ± 131 ng·h/mL	240 ± 96.6 ng·h/mL	53 ± 19.2 ng/mL	0.79 ± 0.19 h	8.13 ± 1.23 h	16.8 ± 3.55 h	387 ± 78.7 ng·h/mL	peak time (ADHD model rats): less than 1 h; Clearances [1]: 2855.71 ± 621.15 mL/h; Vss [1]: 40360.07 ± 12917.92 mL; Clearances [2]: 1291.22 ± 525.61 mL/h; Vss [2]: 23782.60 ± 13625.69 mL; Vss [3]: 35282.72 ± 25449.21 mL; MRT(0-t), ADHD rats compared with control rats (all concentrations): significantly higher; AUC(0-t), model rats compared with control rats (high-dose administration group): significantly greater; half-life [5]: 12.2 ± 2.82 h; AUC(0-t) [6]: 307 ± 55.6 ng·h/mL; Cmax [6]: 73.1 ± 22.6 ng/mL; Tmax [6]: 0.58 ± 0.13 h; half-life [6]: 10.3 ± 4.24 h; MRT last [6]: 7.95 ± 1.2 h; MRT inf [6]: 14.5 ± 5.42 h
C[C@H]1O[C@@H](O[C@H]2CC[C@@]3(C)[C@@H](CC[C@]4(C)[C@@H]3C=C[C@]35OC[C@@]6(CCC(C)(C)C[C@H]63)[C@H](O)C[C@]54C)[C@]2(C)CO)[C@H](O)[C@@H](O[C@@H]2O[C@H](CO)[C@@H](O)[C@H](O)[C@H]2O)[C@H]1O [Saikosaponin D]	1294.18± 361.60 ng/mL*(h)²	3035.93± 850.28 ng/mL*(h)²	761.68± 201.22 ng/mL*(h)²	2701.81± 992.13 ng/mL*(h)²	1149.72± 377.93 ng/mL*(h)²	3004.18± 2085.30 ng/mL*(h)²	132 ± 32.3 ng·h/mL	91.3 ± 24.6 ng·h/mL	22.6 ± 2.41 ng/mL	0.58 ± 0.13 h	15 ± 5.9 h	8.43 ± 0.96 h	20.3 ± 5.6 h	188 ± 55.2 ng·h/mL	145 ± 32.8 ng·h/mL	33.1 ± 3.36 ng/mL	0.54 ± 0.25 h	7.8 ± 1.36 h	14.8 ± 6.52 h	201 ± 50 ng·h/mL	peak time (ADHD model rats): less than 1 h; Clearances [1]: 3506.08 ± 856.33 mL/h; Vss [1]: 53202.65 ± 17657.23 mL; Clearances [2]: 1343.52 ± 399.07 mL/h; Vss [2]: 26784.08 ± 8767.24 mL; Clearances [3]: 1952.91 ± 715.40 mL/h; Vss [3]: 26532.70 ± 7619.14 mL; MRT, model rats compared with control rats (high-dose): higher; half-life [5]: 10.6 ± 4.96 h; AUC(0-t) [6]: 156 ± 38.6 ng·h/mL; Cmax [6]: 41.5 ± 12.4 ng/mL; Tmax [6]: 0.38 ± 0.14 h; half-life [6]: 10.3 ± 2.55 h; MRT last [6]: 8.26 ± 0.54 h; MRT inf [6]: 15.2 ± 2.75 h; AUC, ADHD model rats compared with control rats (medium- and high-dose): higher
CCC/C=C1\OC(=O)C2=C1CCC=C2 [Z-Ligustilide]	458.69± 201.28 ng/mL*(h)²	1348.99± 756.73 ng/mL*(h)²	322.64± 100.23 ng/mL*(h)²	870.35± 311.46 ng/mL*(h)²	383.83± 150.84 ng/mL*(h)²	1224.58± 657.13 ng/mL*(h)²	49.3 ± 14.7 ng·h/mL	36.7 ± 18.2 ng·h/mL	4.07 ± 1.85 ng/mL	1.67 ± 1.21 h	12.8 ± 3.2 h	8.9 ± 1.12 h	17.9 ± 4.8 h	62.2 ± 24.5 ng·h/mL	44.7 ± 18.2 ng·h/mL	5.57 ± 2.26 ng/mL	1.13 ± 0.44 h	8.72 ± 0.8 h	20 ± 7.8 h	69.7 ± 27.1 ng·h/mL	t1/2 [3]: 14.63 ± 7.18 h; AUC(0-t) [6]: 49.5 ± 16.8 ng·h/mL; Cmax [6]: 6.63 ± 1.78 ng/mL; Tmax [6]: 0.96 ± 0.1 h; half-life [6]: 12.5 ± 3.72 h; MRT last [6]: 8.9 ± 1.5 h; MRT inf [6]: 18 ± 5 h
